Source: US20130029962A1, “Substituted Heteroaromatic Pyrazole-Containing Carboxamide and Urea Compounds as Vanilloid Receptor Ligands” (Gruenenthal GmbH, priority 2011, published 2013)

target: T1, vanilloid receptor 1 (VR1/TRPV1 receptor) (Homo sapiens, UniProt Q8NER1); assay: Functional testing on the vanilloid receptor 1 (VR1/TRPV1): FLIPR Ca2+ influx assay, displacement of capsaicin; format: cell-based, human being; parameters: key to mode of action at VR1/TRPV1 (AG, pAG, NE), Cap: AG=agonist; NE=no effect; pAG=partial agonist; conditions: 5 μM compound; capsaicin (Cap); human being; read-out: inhibition (as a percentage) at the concentration after @, Cap
T1 construct: expressed in transfected cells; host or cells: CHO K1
T1 sequence (Q8NER1 whole entry): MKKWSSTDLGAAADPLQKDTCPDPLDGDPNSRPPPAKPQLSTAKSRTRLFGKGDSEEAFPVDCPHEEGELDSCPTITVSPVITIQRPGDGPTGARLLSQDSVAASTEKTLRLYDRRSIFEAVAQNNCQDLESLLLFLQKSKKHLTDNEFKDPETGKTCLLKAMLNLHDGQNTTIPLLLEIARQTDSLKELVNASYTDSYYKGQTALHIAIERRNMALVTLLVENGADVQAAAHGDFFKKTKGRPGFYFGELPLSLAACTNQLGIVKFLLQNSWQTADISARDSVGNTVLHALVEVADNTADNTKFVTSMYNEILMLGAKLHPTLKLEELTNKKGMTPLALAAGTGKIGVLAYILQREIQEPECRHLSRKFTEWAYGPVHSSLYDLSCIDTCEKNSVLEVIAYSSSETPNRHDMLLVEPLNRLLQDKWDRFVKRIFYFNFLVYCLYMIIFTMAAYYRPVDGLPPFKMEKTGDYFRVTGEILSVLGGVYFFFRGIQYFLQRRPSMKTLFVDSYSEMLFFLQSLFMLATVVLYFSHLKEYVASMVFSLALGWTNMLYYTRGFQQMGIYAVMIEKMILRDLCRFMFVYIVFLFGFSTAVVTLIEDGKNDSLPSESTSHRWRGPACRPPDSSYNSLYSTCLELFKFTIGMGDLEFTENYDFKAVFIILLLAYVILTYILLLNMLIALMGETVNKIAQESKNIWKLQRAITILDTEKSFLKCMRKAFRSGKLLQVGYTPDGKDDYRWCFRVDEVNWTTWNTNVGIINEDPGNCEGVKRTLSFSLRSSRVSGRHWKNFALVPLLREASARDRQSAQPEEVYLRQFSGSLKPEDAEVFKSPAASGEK
Protocol: Furthermore, preference may be given to compounds according to the invention that cause a 50 percent displacement of capsaicin, which is present at a concentration of 100 nM, in a FLIPR assay with CHO K1 cells which were transfected with the human VR1 gene at a concentration of less than 2,000 nM, preferably less than 1,000 nM, particularly preferably less than 300 nM, most particularly preferably less than 100 nM, even more preferably less than 75 nM, additionally preferably less than 50 nM, most preferably less than 10 nM.
In the process, the Ca^2+ influx is quantified in the FLIPR assay with the aid of a Ca^2+-sensitive dye (type Fluo-4, Molecular Probes Europe BV, Leiden, the Netherlands) in a fluorescent imaging plate reader (FLIPR, Molecular Devices, Sunnyvale, USA), as described hereinafter. […]
The number of cells in the suspension is set to 3×10^5 per mL and 150 μL of this suspension are in each case introduced into a recess in the cell culture plates coated as described hereinbefore. In the incubator the plates are left for two to three days at 37° C., 5% by volume of CO2 and 95% relative humidity. Subsequently, the cells are loaded with 2 μM of Fluo-4 and 0.01% by volume of Pluronic F127 (Molecular Probes Europe BV, Leiden, the Netherlands) in HBSS buffer (Hank's buffered saline solution, Gibco Invitrogen GmbH, Karlsruhe, Germany) for 30 min at 37° C., washed 3 times with HBSS buffer and after further incubation for 15 minutes at room temperature used for Ca^2+ measurement in a FLIPR assay. The Ca^2+-dependent fluorescence is in this case measured before and after the addition of substances (λex=488 nm, λem=540 nm). Quantification is carried out by measuring the highest fluorescence intensity (FC, fluorescence counts) over time.
The FLIPR protocol consists of 2 substance additions. First the compounds to be tested (10 μM) are pipetted onto the cells and the Ca^2+ influx is compared with the control (capsaicin 10 μM). This provides the result in % activation based on the Ca^2+ signal after the addition of 10 μM of capsaicin (CP). After 5 minutes' incubation, 100 nM of capsaicin are applied and the Ca^2+ influx is also determined. Desensitising agonists and antagonists lead to suppression of the Ca^2+ influx. The % inhibition is calculated compared to the maximum achievable inhibition with 10 μM of capsazepine. Triple analyses (n=3) are carried out and repeated in at least 3 independent experiments (N=4).
Starting from the percentage displacement caused by different concentrations of the compounds to be tested of general formula I, IC50 inhibitory concentrations which cause a 50-percent displacement of capsaicin were calculated. Ki values for the test substances were obtained by conversion by means of the Cheng-Prusoff equation (Cheng, Prusoff; Biochem. Pharmacol. 22, 3099-3108, 1973).
The affinity of the compounds according to the invention for the vanilloid receptor 1 (VR1/TRPV1 receptor) was determined as described above (pharmacological method I).

| Compound | inhibition at 5 µM [%] |
| --- | --- |
| CS(=O)(=O)Nc1ccc(NC(=O)NCc2cc(C(F)(F)F)nn2-c2cccc(Cl)c2)cn1 [Example 101, N-(5-(3-((1-(3-chlorophenyl)-3-(trifluoromethyl)-1H-pyrazol-5-yl)methyl)ureido)pyridin-2-yl)methanesulfonamide] | 30 |
| COCCN(C)c1ccc(C(C)C(=O)NCc2cc(C(F)(F)F)nn2-c2cccc(Cl)c2)cn1 (centres unmarked) [Example 88, N-((1-(3-chlorophenyl)-3-(trifluoromethyl)-1H-pyrazol-5-yl)methyl)-2-(6-((2-methoxyethyl)(methyl)amino)pyridin-3-yl)propanamide] | 55 |
| COCCOc1ccc(NC(=O)NCc2cc(C(C)(C)C)nn2-c2cccc(Cl)c2)cn1 [Example 131, 1-((3-tert-butyl-1-(3-chlorophenyl)-1H-pyrazol-5-yl)methyl)-3-(6-(2-methoxyethoxy)pyridin-3-yl)urea] | 83 |

same assay, conditions: capsaicin (Cap) as stimulus; Ki from IC50 by Cheng-Prusoff; read-out: (f) Ki (human being) [nM] Cap

| Compound | Ki [nM] |
| --- | --- |
| CC(C(=O)NCc1cc(C(F)(F)F)nn1-c1cccc(Cl)c1)c1cnc(C(=O)Nc2ccc(F)cc2)nc1 (centres unmarked) [Example 63, 5-(1-((1-(3-chlorophenyl)-3-(trifluoromethyl)-1H-pyrazol-5-yl)methylamino)-1-oxopropan-2-yl)-N-(4-fluorophenyl)pyrimidine-2-carboxamide] | 6 |
| Cc1cc(C)c(NC(=O)NCc2cc(C(F)(F)F)nn2-c2cccc(Cl)c2)cn1 [Example 138, 1-((1-(3-chlorophenyl)-3-(trifluoromethyl)-1H-pyrazol-5-yl)methyl)-3-(4,6-dimethylpyridin-3-yl)urea] | 90 |
| CC(C(=O)NCc1cc(C(F)(F)F)nn1-c1cccc(Cl)c1)c1cnc(CO)c(F)c1 (centres unmarked) [Example 142, N-((1-(3-chlorophenyl)-3-(trifluoromethyl)-1H-pyrazol-5-yl)methyl)-2-(5-fluoro-6-(hydroxymethyl)pyridin-3-yl)propanamide] | 1.5 |
| O=C(NCc1cc(C(F)(F)F)nn1-c1cc(F)cc(F)c1)Nc1ccc(NCCO)nc1 [Example 155, 1-((1-(3,5-difluorophenyl)-3-(trifluoromethyl)-1H-pyrazol-5-yl)methyl)-3-(6-(2-hydroxyethylamino)pyridin-3-yl)urea] | 35 |
| O=C(NCc1cc(C(F)(F)F)nn1-c1cccc(Cl)c1)Nc1ccc(N2CC(O)C2)nc1 [Example 111, 1-((1-(3-chlorophenyl)-3-(trifluoromethyl)-1H-pyrazol-5-yl)methyl)-3-(6-(3-hydroxyazetidin-1-yl)pyridin-3-yl)urea] | 38 |
| CC(C)(C)c1cc(CNC(=O)Nc2cnc(CCS(C)(=O)=O)c(F)c2)n(-c2cccc(Cl)c2)n1 [Example 22, 1-((3-tert-butyl-1-(3-chlorophenyl)-1H-pyrazol-5-yl)methyl)-3-(5-fluoro-6-(2-(methylsulfonyl)ethyl)pyridin-3-yl)urea] | 28 |
| CN(C)c1ncc(NC(=O)NCc2cc(C(F)(F)F)nn2-c2cccc(Cl)c2)cc1C(F)(F)F [Example 106, 1-((1-(3-chlorophenyl)-3-(trifluoromethyl)-1H-pyrazol-5-yl)methyl)-3-(6-(dimethylamino)-5-(trifluoromethyl)pyridin-3-yl)urea] | 25 |
| CC(C(=O)NCc1cc(C(F)(F)F)nn1-c1cccc(Cl)c1)c1ccc(NS(C)(=O)=O)nc1 (centres unmarked) [Example 99, N-((1-(3-chlorophenyl)-3-(trifluoromethyl)-1H-pyrazol-5-yl)methyl)-2-(6-(methylsulfonamido)pyridin-3-yl)propanamide] | 11 |
| CC(C)(C)c1cc(CNC(=O)Nc2ccc(CCO)nc2)n(-c2cccc(F)c2)n1 [Example 152, 1-((3-tert-butyl-1-(3-fluorophenyl)-1H-pyrazol-5-yl)methyl)-3-(6-(2-hydroxyethyl)pyridin-3-yl)urea] | 85 |
| CC(C)(C)c1cc(CNC(=O)Nc2ccc(N3CCC3)nc2)n(-c2cccc(Cl)c2)n1 [Example 108, 1-(6-(azetidin-1-yl)pyridin-3-yl)-3-((3-tert-butyl-1-(3-chlorophenyl)-1H-pyrazol-5-yl)methyl)urea] | 43 |

same assay, conditions: capsaicin (Cap); human being

| Compound | mode of action at VR1/TRPV1 (AG, pAG, NE), Cap |
| --- | --- |
| COCCOc1ccc(NC(=O)NCc2cc(C(C)(C)C)nn2-c2cccc(Cl)c2)cn1 [Example 131, 1-((3-tert-butyl-1-(3-chlorophenyl)-1H-pyrazol-5-yl)methyl)-3-(6-(2-methoxyethoxy)pyridin-3-yl)urea] | AG |
